Read-outs that look alike come from different tables or passages of the source. Each block holds one compound with its values, some of them ahead of it.
Columns and labels:
guinea pig eosinophil = assay: Leukotriene B4 induced guinea pig eosinophil chemotaxis; type: cell-based; details: for Effect of antagonist on the inhibition of eosinophil chemotaxis: inhibition by SM-11044 and BRL-35135A
[1] = molecular target: T1, [125I]-ICYP specific binding site (SMBP, SM-11044 binding protein) in rat colon smooth muscle membranes (Rattus norvegicus, UniProt A0A8I6A822); assay: [125I]-ICYP saturation and competition binding to rat colon membranes (Example 2); details: for Ki: read-out: Ki on [125I]-ICYP specific binding to rat colon membranes; for Displacement of [125I]-ICYP specific binding (in words): competition binding, no concentration stated
T1 construct: Membranes from colon smooth muscles were prepared as essentially described by Ek et al., 1986; from tissue
T1 sequence (A0A8I6A822 27-587): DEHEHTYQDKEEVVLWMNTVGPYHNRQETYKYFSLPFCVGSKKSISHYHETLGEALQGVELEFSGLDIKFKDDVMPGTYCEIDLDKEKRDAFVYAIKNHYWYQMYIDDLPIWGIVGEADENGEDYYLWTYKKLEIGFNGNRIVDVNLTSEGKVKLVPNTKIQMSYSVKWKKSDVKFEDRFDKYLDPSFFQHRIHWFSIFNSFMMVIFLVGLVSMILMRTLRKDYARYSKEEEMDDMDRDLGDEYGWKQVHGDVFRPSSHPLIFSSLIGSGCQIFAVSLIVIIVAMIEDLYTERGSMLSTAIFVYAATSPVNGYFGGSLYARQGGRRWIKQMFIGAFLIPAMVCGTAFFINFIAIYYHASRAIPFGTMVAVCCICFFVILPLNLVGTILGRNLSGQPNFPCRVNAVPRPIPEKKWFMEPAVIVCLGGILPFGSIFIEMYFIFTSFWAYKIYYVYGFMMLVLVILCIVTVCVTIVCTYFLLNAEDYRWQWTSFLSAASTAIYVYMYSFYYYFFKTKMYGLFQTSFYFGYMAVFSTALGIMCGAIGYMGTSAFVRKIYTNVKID
Description: Incubations were carried out at 37° C. for 30 min in a shaking water-bath incubator and terminated by addition of 4 ml of ice-cold Tris-saline followed by rapid filtration under vacuum on Whatman GF/B filter presoaked in Tris-saline containing 0.1% polyethyleneimine (pH 7.4). The filters were washed three times with 4 ml of ice-cold Tris-saline, transferred to plastic tubes and counted in a γ-counter.
Hill coefficient was calculated by linear regression using saturation experiment data. Pseudo-Hill coefficient and IC50 were determined by the computer program, InPlot™ (GraphPad Software, CA, USA).

[2] = molecular target: T2, SMBP in rat colon smooth muscle membranes (Rattus norvegicus, UniProt A0A8I6A822); assay: [125I]-ICYP saturation binding to rat colon membranes (Example 1); details: means ± SD
T2 construct: Membranes from colon smooth muscles were prepared as essentially described by Ek et al., 1986; from tissue
T2 sequence (A0A8I6A822 27-587): as above
Description: Frozen rat colons (SD strains, male and female) were purchased from Pel-Freeze Biologicals (Arkansas, USA). Membranes from colon smooth muscles were prepared as essentially described by Ek et al., 1986, with the slight following modifications. The colon segment was washed in ice-cold Tris-saline (10 mM Tris/HCl, 154 mM NaCl, (pH 7.4)), cut open longitudinally and the mucosa was removed by scrubbing with a glass slide on ice-cold plastic plate. The smooth muscle preparations were homogenized with a Polytron homogenizer for 1 min. The homogenate was filtered through a gauze and centrifuged (1,500×g for 20 min at 4° C.), the supernatant was collected and centrifuged (50,000×g for 20 min at 4° C.). The pellet comprising the membranes was resuspended in Tris-saline and was stored at −80° C. until use. The protein concentration was determined by Bio-Rad protein assay kit (Bio-Rad USA).
Saturation binding studies were performed in a final volume of 200 μl of Tris-saline containing 50 μg membrane proteins and different concentrations (0.05-25 nM) of [^125I]-ICYP, in the presence of 10 μM serotonine (5-HT), 10 μM phentolamine, 20 μM (±) propranolol and 1.1 mM ascorbic-acid pH 7.4), to block possible 5-HT receptors, ARs and oxidation of catecholamines, respectively. […] The filters were washed three times with 4 ml of ice-cold Tris-saline, transferred to plastic tubes and counted in a γ-counter.

rat white adipocytes = assay: Lipolysis in rat white adipocytes; type: cell-based; details: for IA, rat white adipocyte lipolysis: relative to isoproterenol; for EC50: Rattus norvegicus, Adipocyte, read-out: pD2, rat white adipocyte lipolysis (converted)
Description: White adipocytes were isolated from epididymal fat pads of male Wistar rats (190-230 g) and lipolysis was determined according to the previous report (Sugasawa T. et al. cited above). The cells were preincubated for 5 min at 37° C. in the presence of 30 μM ascorbic acid, 10 μM phentolamine and 1 μM propranolol.
Agonists were then applied and incubated for 90 min. In the case of testing the effect of cyanopindolol, it was added 5 min before the addition of agonist.
(§1) Agonist concentration-ratios (CR) were determined from the EC50 values of the concentration-response curves of agonists with or without cyanopindolol, according to the method of Arunlakshana et al., 1959.
(§2) The EC50 values were calculated using the computer program, InPlot™.

[3] = tested on: rat colon smooth muscle segment; assay: Relaxation of KCl-induced tonus in rat colon segment (organ bath); details: for IA, rat colon relaxation: relative to isoproterenol; for EC50: Rattus norvegicus, read-out: pD2, rat colon relaxation (converted)
Description: Rat colon segment (2 cm) was suspended in organ bath containing 10 ml modified-Tyrode solution (Sugasawa T. et al. Eur. J. Pharmacol., 1992, 216, 207-215). The Tyrode solution contained 0.5 μM atropine, 0.5 μM desmethylimipramine, 30 μM hydrocortisone, 30 μM ascorbic acid, 10 μM phentolamine and 1 μM propranolol throughout study, in order to inhibit spontaneous contraction, neuronal and extra-neuronal uptake of norepinephrine, oxidation of catecholamines, possible α, β1- and β2-AR effects, respectively.
The relaxant action of agonists was determined by measuring relaxation of KCl (100 mM)-induced tonus evoked by cumulative addition of the agonists as described previously (Sugasawa T. et al. cited above). In the case of testing the effect of cyanopindolol, it was added 5-10 min before the addition of agonist.
as §1, §2

[4] = molecular target: T3, 34 kDa photoaffinity-labeled protein (SMBP) in rat colon membranes (Rattus norvegicus, UniProt A0A8I6A822); assay: Photoaffinity labeling of rat colon membranes with [125I]-ICYP-diazirine; type: binding
T3 construct: Membranes from colon smooth muscles were prepared as essentially described by Ek et al., 1986; from tissue
T3 sequence (A0A8I6A822 27-587): as above
Description: Incubations were carried out in the presence or absence of competitor at 37° C. for 45 min in the dark in a shaking water-bath incubator and terminated by addition of 10 ml of ice-cold Tris-saline followed by a rapid centrifugation (150,000×g for 10 min at 4° C.). The membranes were irradiated with a UV lamp for 5 min with cooling by circulating water. The labeled membranes were diluted with 10 ml of ice-cold Tris-saline, centrifuged (150,000×g for 30 min at 4° C.), and the pellet was resuspended in Tris-saline and kept at −80° C.
SDS-PAGE was performed under reducing conditions essentially as described by Laemmli, 1970, using 12% polyacrylamide gels (40% T, 2.6% C). […] After electrophoresis, the gels were dried and autoradiographed on X-OMAT™ AR film (Eastman Kodak Co., NY, USA), as specified in example 1, chapter <<(preparative SDS-PAGE>>.

[5] = 1 nM [125I]-ICYP, 10 μM 5-HT, 10 μM phentolamine and 20 μM propranolol
[6] = up to the concentration of 1 mM
[7] = 10 μM phentolamine and 1 μM propranolol, mean ± SEM

Compound: C=CCc1ccccc1OCC(O)CNC(C)C (racemic) [(±)-alprenolol, alprenolol]
- Effect of antagonist on the inhibition of eosinophil chemotaxis (guinea pig eosinophil): antagonized
- Pseudo-Hill coefficient [1, 5]: 0.85 ± 0.24
- Ki [1, 5]: 13.3 ± 2.4 µM

Compound: Cc1ccc(Cl)c(OCC(O)CNC(C)(C)C)c1 (racemic) [(±)-bupranolol, bupranolol]
- Pseudo-Hill coefficient [1, 5]: 1.08 ± 0.08
- Ki [1, 5]: 11.3 ± 0.8 µM

Compound: CC(C)NCC(O)COc1cccc2[nH]c3ccccc3c12 (racemic) [(±)-carazolol, carazolol]
- Pseudo-Hill coefficient [1, 5]: 0.77 ± 0.11
- Ki [1, 5]: 8.1 ± 1.7 µM
- Displacement of [125I]-ICYP specific binding (in words) [1]: less effective

Compound: NCCc1c[nH]c2ccc(O)cc12 [5-HT, serotonine]
- Ki [1, 5]: > 1000 µM
- Displacement of [125I]-ICYP specific binding [1, 6]: not displaced

Compound: CNC[C@H](O)c1ccc(O)c(O)c1 [(−)-epinephrine, epinephrine]
- IA, rat white adipocyte lipolysis (rat white adipocytes; [7]): 0.91 ± 0.036
- EC50 (rat white adipocytes): 6.92 µM
- Ki [1, 5]: > 1000 µM
- Displacement of [125I]-ICYP specific binding [1, 6]: not displaced
- IA, rat colon relaxation [3, 7]: 0.86 ± 0.137
- EC50 [3]: 1.2 µM

Compound: NC[C@H](O)c1ccc(O)c(O)c1 [(−)-norepinephrine, norepinephrine]
- IA, rat white adipocyte lipolysis (rat white adipocytes; [7]): 1.02 ± 0.058
- EC50 (rat white adipocytes): 3.98 µM
- Ki [1, 5]: > 1000 µM
- Displacement of [125I]-ICYP specific binding [1, 6]: not displaced
- IA, rat colon relaxation [3, 7]: 0.85 ± 0.168
- EC50 [3]: 1.41 µM

Compound: COC(=O)COc1ccc(CC(C)NCC(O)c2cccc(Cl)c2)cc1 (stereo not drawn) [BRL-35135A, (R*R*)-(+)-4-[2′-[2-hydroxy 2-(3-chlorophenyl)ethylamino]propyl]phenoxyacetic acid methyl ester]
- Inhibition of leukotriene B4 induced guinea pig eosinophil chemotaxis (guinea pig eosinophil): inhibiting
- Pseudo-Hill coefficient [1, 5]: 0.80 ± 0.14
- Ki [1, 5]: 1.4 ± 0.1 µM
- Displacement of [125I]-ICYP specific binding (in words) [1]: displaced the specific binding

Compound: CC(Cc1ccc(OCC(=O)O)cc1)NCC(O)c1cccc(Cl)c1 (stereo not drawn) [BRL-37344]
- Inhibition of leukotriene B4 induced guinea pig eosinophil chemotaxis (guinea pig eosinophil): no such effect
- Displacement of the photoaffinity-labeled 34 kDa band ([4]; competitor 100 μM, 1.5 nM [125I]-ICYP-diazirine, 10 μM 5-HT, 10 μM phentolamine, 20 μM propranolol): not displaced
- IA, rat white adipocyte lipolysis (rat white adipocytes; [7]): 0.72 ± 0.0333
- EC50 (rat white adipocytes; [7]): 0.0562 µM
- Ki [1, 5]: > 100 µM
- Displacement of [125I]-ICYP specific binding ([1]; up to the concentration of 100 μM): did not displace
- IA, rat colon relaxation [3, 7]: 1.00 ± 0.126
- EC50 ([3]; relaxation of KCl (100 mM)-induced tonus, 10 μM phentolamine and 1 μM propranolol, mean ± SEM): 0.0316 µM

Compound: CC(C)(C)NCC(O)COc1cccc2[nH]c(=O)[nH]c12 (stereo not drawn) [CGP-12177A]
- Ki [1, 5]: > 100 µM

Compound: NCCc1ccc(O)c(O)c1 [Dopamine, dopamine]
- Ki [1, 5]: > 1000 µM
- Displacement of [125I]-ICYP specific binding [1, 6]: not displaced

More lines, main results first:

- Pseudo-Hill coefficient [1, 5]: 0.96 ± 0.23
- Ki [1, 5]: 29.4 ± 8.9 µM
- Displacement of [125I]-ICYP specific binding (in words) [1]: displaced the specific binding
Compound: COC(=O)COc1ccc(OCCNCC(O)COc2ccccc2)cc1 (racemic) [ICI-198157, (RS)-4-[2-[(2-hydroxy-3-phenoxypropyl)amino]ethoxy]phenoxyacetic acid methyl ester]

- Pseudo-Hill coefficient [1, 5]: 0.67 ± 0.13
- Ki [1, 5]: 29.3 µM
Compound: O=C([C@@H](NCCCc1ccc(F)cc1)[C@@H](O)c1ccc(O)c(O)c1)N1CCCC1 (racemic) [SM-14010]

- Pseudo-Hill coefficient [1, 5]: 1.07 ± 0.15
- Ki [1, 5]: 2 µM
- Effectiveness in competition binding relative to SM-14010 ([1]; ratio of Ki, SM-14011 vs SM-14010): 15 times
Compound: O=C([C@@H](NCCCc1ccc(F)cc1)[C@H](O)c1ccc(O)c(O)c1)N1CCCC1 (racemic) [SM-14011]

- Pseudo-Hill coefficient [1, 5]: 1.21 ± 0.21
- Ki [1, 5]: 5.9 ± 1 µM
Compound: CCOC(=O)COc1ccc2c(c1)C[C@@H](NC[C@H](O)c1cccc(Cl)c1)CC2 (racemic) [SR-58611A, (RS)-N-(7 carbethoxymethoxyl-1,2,3,4-tetrahydronaphth-2-yl)-2-hydroxy-2-(3 chlorophenyl) ethanamine hydro-chloride]

- Kd ([2]; Example 1 membranes (SD rats), blockade of adrenergic and serotonine receptors, read-out: Dissociation constant (Kd), Scatchard plot): 0.00722 ± 7e-06 µM
- Kd ([1]; Example 2 membranes (Wistar rats), 10 μM 5-HT, 10 μM phentolamine and 20 μM propranolol, read-out: Dissociation constant (Kd), Scatchard plot): 0.011 ± 0.00095 µM
Compound: CC(C)(C)NCC(O)COc1cccc2[nH]c(C#N)c(I)c12 (single isomer, unassigned; (-)) [[^125I]-ICYP, (−)-3-[^125I] iodocyanopindolol]

- Maximum number of binding sites (Bmax) ([2]; Example 1 membranes): 1.13 ±0.071 pmol/mg membrane protein
- Specific binding at equilibrium levels ([1]; 1 nM [125I]-ICYP, 30 min, n=2): 82.7±1.9%
- Maximum number of binding sites (Bmax) ([1]; Example 2 membranes, 10 μM 5-HT, 10 μM phentolamine and 20 μM propranolol): 716.7±21.12 fmol/mg protein
- Hill coefficient of the saturation curve ([1]; saturation experiment, 30 min incubation): 0.99±0.03
Compound: CC(C)(C)NCC(O)COc1cccc2[nH]c(C#N)c([125I])c12 (single isomer, unassigned; (-)) [[^125I]-ICYP, (−)-3-[^125I] iodocyanopindolol]

- Inhibition of [125I]-ICYP specific binding ([1]; at 300 μM, n=2): 29.8±2.7%
- Inhibition of [125I]-ICYP specific binding ([1]; at 1 mM, n=2): 98.2 ± 1.3%
Compound: Nc1nc2c(ncn2[C@@H]2O[C@H](COP(=O)(O)OP(=O)(O)OP(=O)(O)O)[C@@H](O)[C@H]2O)c(=O)[nH]1 [GTP]

- Pseudo-Hill coefficient [1, 5]: 0.89 ± 0.14
- Ki [1, 5]: 28.5 µM
Compound: Cc1ccc(OCC(O)C(C)NC(C)C)c2c1CCC2 (stereo not drawn) [ICI-118551]

- Ki [1, 5]: > 100 µM
Compound: O=C(O)COc1ccc(OCCNCC(O)COc2ccccc2)cc1 (stereo not drawn) [ICI-201651]

- Ki [1, 5]: > 100 µM
Compound: O=C(O)COc1ccc(OCCNC[C@H](O)COc2ccccc2)cc1 [ICI-215001]

- Pseudo-Hill coefficient [1, 5]: 0.92 ± 0.15
- Ki [1, 5]: 3.7 ± 0.4 µM
Compound: O=C([C@H](NCCCc1ccc(F)cc1)[C@@H](O)c1ccc(O)c(O)c1)N1CCCC1 [SM-14786]

- Effect on photoaffinity-labeled bands ([4]; competitor 20 μM, 10 μM 5-HT and 10 μM phentolamine): only the 34 kDa band remained visible
Compound: CC(C)NCC(O)COc1cccc2ccccc12 (stereo not drawn) [propranolol]
- Effect of antagonist on the inhibition of eosinophil chemotaxis (guinea pig eosinophil): unaffected

Reference: patent US7276576B1, “Mammalian ICYP (iodocyanopindolol) receptor and its applications” (Dainippon Sumitomo Pharma Co., Ltd., priority 1996, dated 2007)
